Results published in patent US10392368B2, “Pyrazolo and triazolo bicyclic compounds as JAK kinase inhibitors” (THERAVANCE BIOPHARMA R&D IP, LLC, priority 2017, dated 2019).
Read-outs that look alike come from different tables or passages of the source.

Columns and labels:
JAK3 = target: T1, JAK3 (Homo sapiens, UniProt P52333); test: Biochemical JAK3 kinase assay (LanthaScreen); design: GST; purchased Life Technologies; settings: for Ki: read-out: JAK 3 (pKi) (converted)
T1 sequence (P52333 1-1124): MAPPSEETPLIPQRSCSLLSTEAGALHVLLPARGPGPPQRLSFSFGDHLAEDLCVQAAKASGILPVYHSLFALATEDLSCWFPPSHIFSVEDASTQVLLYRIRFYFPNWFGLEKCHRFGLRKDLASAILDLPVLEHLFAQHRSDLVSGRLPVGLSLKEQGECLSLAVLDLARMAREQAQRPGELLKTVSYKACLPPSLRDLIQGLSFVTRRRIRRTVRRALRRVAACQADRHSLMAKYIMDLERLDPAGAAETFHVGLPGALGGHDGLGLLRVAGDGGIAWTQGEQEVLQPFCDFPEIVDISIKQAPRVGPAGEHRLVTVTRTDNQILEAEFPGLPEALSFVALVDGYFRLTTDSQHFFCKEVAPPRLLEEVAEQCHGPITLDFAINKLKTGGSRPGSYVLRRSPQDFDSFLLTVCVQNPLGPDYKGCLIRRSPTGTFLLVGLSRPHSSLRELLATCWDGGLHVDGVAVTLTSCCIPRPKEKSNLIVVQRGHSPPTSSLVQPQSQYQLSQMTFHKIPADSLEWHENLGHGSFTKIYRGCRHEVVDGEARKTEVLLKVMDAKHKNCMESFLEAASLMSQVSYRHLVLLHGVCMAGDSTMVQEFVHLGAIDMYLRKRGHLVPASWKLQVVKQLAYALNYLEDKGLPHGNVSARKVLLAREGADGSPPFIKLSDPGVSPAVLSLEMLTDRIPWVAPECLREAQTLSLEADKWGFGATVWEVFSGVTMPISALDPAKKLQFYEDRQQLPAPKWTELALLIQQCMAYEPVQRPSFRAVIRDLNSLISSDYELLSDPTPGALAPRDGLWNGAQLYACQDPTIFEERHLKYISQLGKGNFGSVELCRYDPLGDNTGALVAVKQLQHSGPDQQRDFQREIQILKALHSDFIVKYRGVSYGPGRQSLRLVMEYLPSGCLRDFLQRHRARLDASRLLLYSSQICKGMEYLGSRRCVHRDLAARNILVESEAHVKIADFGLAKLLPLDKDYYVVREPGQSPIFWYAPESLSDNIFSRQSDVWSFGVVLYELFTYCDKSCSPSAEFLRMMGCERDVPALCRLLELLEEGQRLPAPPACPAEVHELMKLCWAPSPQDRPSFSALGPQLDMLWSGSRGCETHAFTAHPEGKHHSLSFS
How it was run: (§1)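 GST-tagged JAK enzyme and GFP-STAT1 peptide preincubated with compound 1 h, then ATP added; 1 h kinase reaction at ambient temperature, pH 7.5 HEPES/MgCl2 buffer, 1% DMSO. Tb-anti-pSTAT1 (pTyr701) TR-FRET, 520/495 nm ratio; IC50 from 4-parameter fit, converted to pKi via Cheng-Prusoff.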

JAK2 = target: T2, JAK2 (Homo sapiens, UniProt O60674); test: Biochemical JAK2 kinase assay (LanthaScreen); settings: for Ki: read-out: JAK 2 (pKi) (converted)
T2 construct: GST; purchased Life Technologies
T2 sequence (O60674 whole entry): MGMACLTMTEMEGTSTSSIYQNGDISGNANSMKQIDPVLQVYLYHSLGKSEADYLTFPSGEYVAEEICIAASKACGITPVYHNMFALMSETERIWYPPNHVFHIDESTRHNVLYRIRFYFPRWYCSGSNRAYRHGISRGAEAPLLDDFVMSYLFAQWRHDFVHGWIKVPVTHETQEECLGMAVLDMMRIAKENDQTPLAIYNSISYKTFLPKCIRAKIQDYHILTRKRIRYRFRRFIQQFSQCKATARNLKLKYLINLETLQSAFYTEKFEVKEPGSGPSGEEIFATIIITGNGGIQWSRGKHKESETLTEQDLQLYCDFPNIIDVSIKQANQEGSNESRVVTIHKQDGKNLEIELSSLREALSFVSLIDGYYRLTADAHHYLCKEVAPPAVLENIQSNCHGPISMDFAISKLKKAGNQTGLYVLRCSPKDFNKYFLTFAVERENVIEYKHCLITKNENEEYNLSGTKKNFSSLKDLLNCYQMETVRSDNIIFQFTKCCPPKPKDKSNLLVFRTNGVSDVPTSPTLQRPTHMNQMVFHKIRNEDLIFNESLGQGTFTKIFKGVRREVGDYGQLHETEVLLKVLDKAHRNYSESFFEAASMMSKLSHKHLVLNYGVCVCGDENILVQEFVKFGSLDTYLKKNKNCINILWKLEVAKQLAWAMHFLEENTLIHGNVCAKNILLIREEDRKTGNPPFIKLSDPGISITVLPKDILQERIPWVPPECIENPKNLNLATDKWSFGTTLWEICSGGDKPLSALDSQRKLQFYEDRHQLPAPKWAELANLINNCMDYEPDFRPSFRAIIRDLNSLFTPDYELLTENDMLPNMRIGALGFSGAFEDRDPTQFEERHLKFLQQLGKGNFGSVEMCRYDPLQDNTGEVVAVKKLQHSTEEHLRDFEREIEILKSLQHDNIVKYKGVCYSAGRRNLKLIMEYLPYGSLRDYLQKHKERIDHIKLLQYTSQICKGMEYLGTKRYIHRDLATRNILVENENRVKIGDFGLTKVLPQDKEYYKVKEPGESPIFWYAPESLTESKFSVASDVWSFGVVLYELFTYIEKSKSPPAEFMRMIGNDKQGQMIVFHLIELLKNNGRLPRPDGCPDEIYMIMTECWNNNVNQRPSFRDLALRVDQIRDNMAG
Procedure: (§2) A panel of four LanthaScreen JAK biochemical assays (JAK1, 2, 3 and Tyk2) were carried in a common kinase reaction buffer (50 mM HEPES, pH 7.5, 0.01% Brij-35, 10 mM MgCl2, and 1 mM EGTA). Recombinant GST-tagged JAK enzymes and a GFP-tagged STAT1 peptide substrate were obtained from Life Technologies.
(§3) Serially or discretely diluted compounds were pre-incubated with each of the four JAK enzymes and the substrate in white 384-well microplates (Corning) at ambient temperature for 1 h. ATP was subsequently added to initiate the kinase reactions in 10 μL total volume, with 1% DMSO. […] Kinase reactions were allowed to proceed for 1 hour at ambient temperature before a 10 μL preparation of EDTA (10 mM final concentration) and Tb-anti-pSTAT1 (pTyr701) antibody (Life Technologies, 2 nM final concentration) in TR-FRET dilution buffer (Life Technologies) was added. The plates were allowed to incubate at ambient temperature for 1 h before being read on the EnVision reader (Perkin Elmer).
(§4) For dose-response analysis, percent inhibition data were plotted vs. compound concentrations, and IC50 values were determined from a 4-parameter robust fit model with the Prism software (GraphPad Software). Results were expressed as pIC50 (negative logarithm of IC50) and subsequently converted to pKi (negative logarithm of dissociation constant, Ki) using the Cheng-Prusoff equation.

[1] = test system: IL-2 stimulated pSTAT5 in Tall-1 T cells; test: Cellular JAK3 potency assay: inhibition of IL-2 stimulated pSTAT5 in Tall-1 T cells; format: cell-based, human; settings: for IC50: Homo sapiens, read-out: Tall-1 (pIC50) (converted)
How it was run: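 Tall-1 human T cells were preincubated with compound for 1 h at 37° C, then stimulated with IL-2 (300 ng/ml final) for 30 min. STAT5 phosphorylation in lysates was read by AlphaLisa bead emission, and IC50 from inhibition curves is given as pIC50 (mean±SD).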

Tyk2 = target: T3, Tyk2 (Homo sapiens, UniProt P29597); test: Biochemical Tyk2 kinase assay (LanthaScreen); settings: for Ki: read-out: Tyk 2 (pKi) (converted)
T3 construct: GST; purchased Life Technologies
T3 sequence (P29597 whole entry): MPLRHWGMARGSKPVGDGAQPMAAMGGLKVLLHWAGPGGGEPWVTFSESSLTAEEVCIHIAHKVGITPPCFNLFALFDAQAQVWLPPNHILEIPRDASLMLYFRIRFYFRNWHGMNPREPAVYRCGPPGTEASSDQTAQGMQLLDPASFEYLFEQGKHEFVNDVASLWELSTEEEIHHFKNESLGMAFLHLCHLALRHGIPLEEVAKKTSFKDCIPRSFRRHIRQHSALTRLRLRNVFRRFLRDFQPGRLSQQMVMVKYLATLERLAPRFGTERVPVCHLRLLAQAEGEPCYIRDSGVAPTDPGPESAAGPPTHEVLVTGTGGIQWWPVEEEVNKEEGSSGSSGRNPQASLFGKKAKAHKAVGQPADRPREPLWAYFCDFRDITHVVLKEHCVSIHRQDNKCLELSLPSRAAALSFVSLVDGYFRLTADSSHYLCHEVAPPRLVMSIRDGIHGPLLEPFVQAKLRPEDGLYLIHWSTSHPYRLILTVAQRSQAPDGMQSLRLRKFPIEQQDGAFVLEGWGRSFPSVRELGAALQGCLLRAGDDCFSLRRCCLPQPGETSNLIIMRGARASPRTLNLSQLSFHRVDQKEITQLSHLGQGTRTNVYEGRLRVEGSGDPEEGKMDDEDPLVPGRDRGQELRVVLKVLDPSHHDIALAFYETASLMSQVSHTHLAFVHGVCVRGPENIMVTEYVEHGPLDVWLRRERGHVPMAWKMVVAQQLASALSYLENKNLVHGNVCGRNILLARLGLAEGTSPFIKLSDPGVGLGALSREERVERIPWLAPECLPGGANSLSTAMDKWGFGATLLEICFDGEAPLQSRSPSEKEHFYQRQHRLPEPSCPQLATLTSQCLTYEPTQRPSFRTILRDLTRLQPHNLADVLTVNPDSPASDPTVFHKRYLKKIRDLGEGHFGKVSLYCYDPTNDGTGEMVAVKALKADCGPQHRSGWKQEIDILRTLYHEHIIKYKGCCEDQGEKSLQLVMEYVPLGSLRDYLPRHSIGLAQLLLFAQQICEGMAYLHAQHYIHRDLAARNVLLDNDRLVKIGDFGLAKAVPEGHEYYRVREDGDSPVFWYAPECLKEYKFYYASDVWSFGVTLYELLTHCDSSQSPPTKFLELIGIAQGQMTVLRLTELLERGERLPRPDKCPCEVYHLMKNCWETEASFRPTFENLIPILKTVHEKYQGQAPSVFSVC
Procedure: as §2
as §3, with “Elmer). Emission ratio signals (520 nm/495 nm) were recorded and utilized to calculate the percent inhibition values based on DMSO and background controls.” for “Elmer).”
as §4

JAK1 = target: T4, JAK1 (Homo sapiens, UniProt P23458); test: Biochemical JAK1 kinase assay (LanthaScreen); settings: for Ki: read-out: JAK 1 (pKi) (converted)
T4 construct: GST; purchased Life Technologies
T4 sequence (P23458 whole entry): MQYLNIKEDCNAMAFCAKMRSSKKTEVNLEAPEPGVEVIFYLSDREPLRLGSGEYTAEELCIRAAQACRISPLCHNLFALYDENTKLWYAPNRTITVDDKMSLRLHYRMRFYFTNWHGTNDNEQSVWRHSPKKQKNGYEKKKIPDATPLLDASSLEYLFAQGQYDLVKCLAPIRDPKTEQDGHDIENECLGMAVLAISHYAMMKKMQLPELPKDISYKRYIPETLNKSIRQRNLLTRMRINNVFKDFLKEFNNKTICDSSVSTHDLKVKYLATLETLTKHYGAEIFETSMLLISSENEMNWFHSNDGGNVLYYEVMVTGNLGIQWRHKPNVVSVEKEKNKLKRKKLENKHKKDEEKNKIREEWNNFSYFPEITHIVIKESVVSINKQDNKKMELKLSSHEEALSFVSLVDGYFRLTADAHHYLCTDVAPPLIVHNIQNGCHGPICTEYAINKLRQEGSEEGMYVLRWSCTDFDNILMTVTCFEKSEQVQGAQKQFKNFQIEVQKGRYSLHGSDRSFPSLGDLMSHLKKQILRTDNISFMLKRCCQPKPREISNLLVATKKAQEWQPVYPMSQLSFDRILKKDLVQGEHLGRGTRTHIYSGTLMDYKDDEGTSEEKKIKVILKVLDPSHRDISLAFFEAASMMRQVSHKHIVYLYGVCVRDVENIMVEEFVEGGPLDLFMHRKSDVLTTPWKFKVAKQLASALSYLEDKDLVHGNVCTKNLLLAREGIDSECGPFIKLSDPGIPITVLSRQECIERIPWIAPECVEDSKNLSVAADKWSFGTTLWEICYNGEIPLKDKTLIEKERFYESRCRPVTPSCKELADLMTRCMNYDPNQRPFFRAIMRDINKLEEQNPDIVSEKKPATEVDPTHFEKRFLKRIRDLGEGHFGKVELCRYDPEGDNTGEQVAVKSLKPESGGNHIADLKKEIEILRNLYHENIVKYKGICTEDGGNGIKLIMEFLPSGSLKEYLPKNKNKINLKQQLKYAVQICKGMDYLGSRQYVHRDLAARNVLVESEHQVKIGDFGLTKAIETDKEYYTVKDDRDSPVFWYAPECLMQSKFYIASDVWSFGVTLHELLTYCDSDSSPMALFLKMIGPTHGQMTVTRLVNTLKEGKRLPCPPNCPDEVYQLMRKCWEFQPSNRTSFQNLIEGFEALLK
How it was run: as §1

[2] = selectivity: difference of pKi JAK3 and pKi JAK1
[3] = IL-2 stimulated pSTAT5 in Tall-1 T cells
[4] = selectivity JAK3 over JAK1, difference of pKi
[5] = IL-2 stimulated pSTAT5, Tall-1 T cells
[6] = TALL-1, IL-2 stimulated pSTAT5, Tall-1 T cells
[7] = TALL-1, IL-2 stimulated pSTAT5 in Tall-1 T cells

Row | Compound | JAK 3 (pKi) (JAK3) | JAK3 (pKi)-JAK1 (pKi) (JAK3; [2]) | JAK 2 (pKi) (JAK2) | Tall-1 (pIC50) [1, 3] | Tyk 2 (pKi) (Tyk2) | JAK 1 (pKi) (JAK1) | JAK3 (pKi)-JAK1 (pKi) (JAK3; [4]) | Tall-1 (pIC50) [1, 5] | Ki (JAK3) | Ki (JAK2) | IC50 [1, 6] | Ki (Tyk2) | Ki (JAK1) | IC50 [1, 7]
1 | C=CC(=O)N1CC(C)(COc2nc(-c3ccc(O)c(Cl)c3)cc3[nH]ncc23)C1 [Compound 3-97] | B (a pKi value between 9 and 10 (Ki between 1 nM and 0.1 nM)) | B (a value of 2.3 to 3) | E (a pKi value of 7 or below (Ki of 100 nM or above)) | A (a pIC50 value≥7.5 (IC50≤32 nM)) | E (a pKi value of 7 or below (Ki of 100 nM or above)) | E (a pKi value of 7 or below (Ki of 100 nM or above)) | – | – | – | – | – | – | – | –
2 | C=CC(=O)N1CCO[C@@H](C(=O)Nc2nc(-c3ccc(O)c(F)c3)cc3[nH]ncc23)C1 [Compound 13-21] | B (a pKi value between 9 and 10 (Ki between 1 nM and 0.1 nM)) | – | D (a pKi value between 7 and 8 (Ki between 100 nM and 10 nM)) | – | E (a pKi value of 7 or below (Ki of 100 nM or above)) | E (a pKi value of 7 or below (Ki of 100 nM or above)) | B (a value of 2.3 to 3) | A (a pIC50 value≥7.5 (IC50≤32 nM)) | – | – | – | – | – | –
3 | C=CC(=O)N1CCC(Nc2cc(-c3ccc(O)cc3)cc3[nH]ncc23)CC1 [Compound 7-4] | – | – | – | – | – | – | B (a value of 2.3 to 3) | – | 0.1 to 1 nM | 1 to 10 nM | < 31.6 nM | > 100 nM | 10 to 100 nM | –
4 | C=CC(=O)N1CC(C)(Oc2cc(-c3ccc(O)c(Cl)c3)cc3[nH]ncc23)C1 [Compound 5-23] | B (a pKi value between 9 and 10 (Ki between 1 nM and 0.1 nM)) | – | E (a pKi value of 7 or below (Ki of 100 nM or above)) | – | E (a pKi value of 7 or below (Ki of 100 nM or above)) | E (a pKi value of 7 or below (Ki of 100 nM or above)) | A (a value of 3 or above) | B (a pIC50 value between 6.7 (included) and 7.5 (IC50 between 200 nM and 32 nM)) | – | – | – | – | – | –
5 | C=CC(=O)N1CC[C@H](Oc2cc(-c3ccc(O)c(F)c3Cl)cc3[nH]ncc23)C1 [Compound 1-15] | – | A (a value of 3 or above) | – | – | – | – | – | – | < 0.1 nM | > 100 nM | – | > 100 nM | > 100 nM | 31.6 to 200 nM
6 | C=CC(=O)N1CC(F)(COc2nc(-c3ccc(O)c(Cl)c3)nc3[nH]ncc23)C1 [Compound 3-92] | – | A (a value of 3 or above) | – | – | – | – | – | – | < 0.1 nM | > 100 nM | – | > 100 nM | > 100 nM | < 31.6 nM
7 | C=CC(=O)N1CC(CC)(COc2cc(-c3ccc(O)c(Cl)c3)nc3[nH]ncc23)C1 [Compound 3-69] | A (a pKi value≥10 (Ki≤0.1 nM)) | A (a value of 3 or above) | E (a pKi value of 7 or below (Ki of 100 nM or above)) | B (a pIC50 value between 6.7 (included) and 7.5 (IC50 between 200 nM and 32 nM)) | E (a pKi value of 7 or below (Ki of 100 nM or above)) | E (a pKi value of 7 or below (Ki of 100 nM or above)) | – | – | – | – | – | – | – | –
8 | C=CC(=O)N1CC[C@H](Oc2nc(-c3ccc(O)cc3)cc3[nH]nc(C)c23)C1 [Compound 1-34] | – | A (a value of 3 or above) | – | – | – | – | – | – | 0.1 to 1 nM | 10 to 100 nM | – | > 100 nM | > 100 nM | < 31.6 nM
9 | C=CC(=O)N1CCC(Oc2nc(-c3ccc(O)c(Cl)c3)cc3[nH]ncc23)CC1 [Compound 6-21] | B (a pKi value between 9 and 10 (Ki between 1 nM and 0.1 nM)) | – | D (a pKi value between 7 and 8 (Ki between 100 nM and 10 nM)) | – | E (a pKi value of 7 or below (Ki of 100 nM or above)) | D (a pKi value between 7 and 8 (Ki between 100 nM and 10 nM)) | B (a value of 2.3 to 3) | B (a pIC50 value between 6.7 (included) and 7.5 (IC50 between 200 nM and 32 nM)) | – | – | – | – | – | –
10 | C=CC(=O)N1CCC(Oc2cc(-c3ccc(O)c(Cl)c3)nc3[nH]ncc23)CC1 [Compound 6-17] | – | – | – | – | – | – | A (a value of 3 or above) | – | < 0.1 nM | > 100 nM | 31.6 to 200 nM | > 100 nM | > 100 nM | –
11 | CN(C)C/C=C/C(=O)N1CC[C@H](Oc2cc(-c3ccc(O)cc3)cc3[nH]ncc23)C1 [Compound 1-1] | – | A (a value of 3 or above) | – | – | – | – | – | – | 0.1 to 1 nM | 10 to 100 nM | – | > 100 nM | > 100 nM | –
12 | C=CC(=O)N1CC(C(C)Oc2nc(-c3ccc(O)cc3)nc3[nH]ncc23)C1 (centres unmarked) [Compound 3-78] | B (a pKi value between 9 and 10 (Ki between 1 nM and 0.1 nM)) | A (a value of 3 or above) | E (a pKi value of 7 or below (Ki of 100 nM or above)) | – | – | – | – | – | – | – | – | – | – | –
